The data set deals with CCRIS mutagenicity, Ames/micronucleus/aberration tests. Kind of data set: CCRIS mutagenicity studies.
The mark [1] stands for this setting: Test System: AMES SALMONELLA TYPHIMURIUM, Strain/Indicator: TA98, Metabolic Activation: HAMSTER, LIVER, S-9, AROCLOR 1254 (10%), Method: PREINCUBATION
Setting [2] is: Test System: AMES SALMONELLA TYPHIMURIUM, Strain/Indicator: TA98, Metabolic Activation: NONE, Method: PREINCUBATION
Setting [3] is: Test System: AMES SALMONELLA TYPHIMURIUM, Strain/Indicator: TA100, Metabolic Activation: NONE, Method: PREINCUBATION

Here are results for five compounds from PubChem BioAssay AID1259407 (Chemical Carcinogenesis Research Information System (CCRIS), 2018).

Activity calls are given as the source filed them. How the calls were made is not given here.

As for `c1ccc2[nH]c(-c3cscn3)nc2c1`, the mutagenic call runs as follows: (End Point: IN VITRO MICRONUCLEUS, Test System: HUMAN LYMPHOBLASTOID WTK1 CELLS, Metabolic Activation: NONE) “active; positive; uva radiation was 250 uw/cm2”; (End Point: IN VITRO MICRONUCLEUS, Test System: V79 CELLS, Metabolic Activation: NONE) “active; positive”; (Test System: AMES SALMONELLA TYPHIMURIUM, Strain/Indicator: TA97, Metabolic Activation: NONE, BACTERIA IRRADIATED IN PRESENCE OF TEST COMPOUND WITH UVA FOR 10 MIN, TRANSFERRED TO MEDIUM, Metabolic Activation: NONE, BACTERIA IRRADIATED IN PRESENCE OF TEST COMPOUND WITH UVA FOR 10 MIN, TRANSFERRED TO MEDIUM, Method: STANDARD PLATE) “active; positive; uva was 250 uw/cm2”; (Test System: AMES SALMONELLA TYPHIMURIUM, Strain/Indicator: TA98, Metabolic Activation: HAMSTER, LIVER, S-9, AROCLOR 1254 (5 OR 30%), Method: PREINCUBATION) “inactive; negative”; under setting [1], “active; positive”; (Test System: AMES SALMONELLA TYPHIMURIUM, Strain/Indicator: TA98, Metabolic Activation: NONE, BACTERIA IRRADIATED IN PRESENCE OF TEST COMPOUND WITH UVA FOR 10 MIN, TRANSFERRED TO MEDIUM, Metabolic Activation: NONE, BACTERIA IRRADIATED IN PRESENCE OF TEST COMPOUND WITH UVA FOR 10 MIN, TRANSFERRED TO MEDIUM, Method: STANDARD PLATE) “active; positive; response was just barely positive; uva was 250 uw/cm2”. In addition, the mutagenic call under setting [2] was “inactive; negative”; the mutagenic call (Test System: AMES SALMONELLA TYPHIMURIUM, Strain/Indicator: TA98, Metabolic Activation: RAT, LIVER, S-9, AROCLOR 1254 (30%), Method: PREINCUBATION) is “inactive; negative”; the mutagenic call (Test System: AMES SALMONELLA TYPHIMURIUM, Strain/Indicator: TA100, Metabolic Activation: HAMSTER, LIVER, S-9, AROCLOR 1254 (30%), Method: PREINCUBATION) is “inactive; negative”; the mutagenic call (Test System: AMES SALMONELLA TYPHIMURIUM, Strain/Indicator: TA100, Metabolic Activation: NONE, BACTERIA IRRADIATED IN PRESENCE OF TEST COMPOUND WITH UVA FOR 10 MIN, TRANSFERRED TO MEDIUM, Metabolic Activation: NONE, BACTERIA IRRADIATED IN PRESENCE OF TEST COMPOUND WITH UVA FOR 10 MIN, TRANSFERRED TO MEDIUM, Method: STANDARD PLATE) was “active; positive; uva was 250 uw/cm2”; the mutagenic call under setting [3] is “inactive; negative”; the mutagenic call (Test System: AMES SALMONELLA TYPHIMURIUM, Strain/Indicator: TA100, Metabolic Activation: RAT, LIVER, S-9, AROCLOR 1254 (30%), Method: PREINCUBATION) is “inactive; negative”. The mutagenic call runs as follows: (Test System: AMES SALMONELLA TYPHIMURIUM, Strain/Indicator: TA104, Metabolic Activation: NONE, BACTERIA IRRADIATED IN PRESENCE OF TEST COMPOUND WITH UVA FOR 10 MIN, TRANSFERRED TO MEDIUM, Metabolic Activation: NONE, BACTERIA IRRADIATED IN PRESENCE OF TEST COMPOUND WITH UVA FOR 10 MIN, TRANSFERRED TO MEDIUM, Method: STANDARD PLATE) “active; positive; uva was 250 uw/cm2”; (Test System: E. COLI, Strain/Indicator: WP2S/PKM101, Metabolic Activation: NONE, BACTERIA IRRADIATED IN PRESENCE OF TEST COMPOUND WITH UVA FOR 10 MIN, TRANSFERRED TO MEDIUM, Metabolic Activation: NONE, BACTERIA IRRADIATED IN PRESENCE OF TEST COMPOUND WITH UVA FOR 10 MIN, TRANSFERRED TO MEDIUM, Method: STANDARD PLATE) “active; positive; uva was 250 uw/cm2”.
Regarding `FC(F)(Br)C(F)(F)I`, the mutagenic call is “inactive; negative” (Test System: Ames Salmonella typhimurium, Strain/Indicator: TA98, Metabolic Activation: None, Method: Preincubation); “inactive; negative” (Test System: Ames Salmonella typhimurium, Strain/Indicator: TA98, Metabolic Activation: Rat, Liver, S9, Sodium phenobarbital and 5,6-benzoflavone (10%), Method: Preincubation); “inactive; negative” (Test System: Ames Salmonella typhimurium, Strain/Indicator: TA100, Metabolic Activation: None, Method: Preincubation); “inactive; negative” (Test System: Ames Salmonella typhimurium, Strain/Indicator: TA100, Metabolic Activation: Rat, Liver, S9, Sodium phenobarbital and 5,6-benzoflavone (10%), Method: Preincubation); “active; positive” (Test System: Ames Salmonella typhimurium, Strain/Indicator: TA1535, Metabolic Activation: None, Method: Preincubation); “active; positive” (Test System: Ames Salmonella typhimurium, Strain/Indicator: TA1535, Metabolic Activation: Rat, Liver, S9, Sodium phenobarbital and 5,6-benzoflavone (10%), Method: Preincubation). Moreover, the mutagenic call is “inactive; negative” (Test System: Ames Salmonella typhimurium, Strain/Indicator: TA1537, Metabolic Activation: None, Method: Preincubation); “inactive; negative” (Test System: Ames Salmonella typhimurium, Strain/Indicator: TA1537, Metabolic Activation: Rat, Liver, S9, Sodium phenobarbital and 5,6-benzoflavone (10%), Method: Preincubation); “active; positive” (Test System: E. coli, Strain/Indicator: WP2uvrA/pKM101, Metabolic Activation: None, Method: Preincubation); “active; positive” (Test System: E. coli, Strain/Indicator: WP2uvrA/pKM101, Metabolic Activation: Rat, Liver, S9, Sodium phenobarbital and 5,6-benzoflavone (10%), Method: Preincubation).
For `O=C(/C=C/c1ccc([N+](=O)[O-])o1)N/N=C/c1ccc([N+](=O)[O-])o1`, the mutagenic call is “active; positive” (Test System: AMES SALMONELLA TYPHIMURIUM, Strain/Indicator: TA98(1,8-DNP6), Metabolic Activation: NONE, Method: STANDARD PLATE); “active; positive” (Test System: AMES SALMONELLA TYPHIMURIUM, Strain/Indicator: TA98(1,8-DNP6), Metabolic Activation: RAT, LIVER, S-9, 3-METHYLCHOLANTHRENE, Method: STANDARD PLATE); “active; positive” (Test System: AMES SALMONELLA TYPHIMURIUM, Strain/Indicator: TA98(NR), Metabolic Activation: NONE, Method: STANDARD PLATE); “active; positive” (Test System: AMES SALMONELLA TYPHIMURIUM, Strain/Indicator: TA98(NR), Metabolic Activation: RAT, LIVER, S-9, 3-METHYLCHOLANTHRENE, Method: STANDARD PLATE); “active; positive” (Test System: AMES SALMONELLA TYPHIMURIUM, Strain/Indicator: TA98, Metabolic Activation: NONE, Method: STANDARD PLATE); “active; positive” (Test System: AMES SALMONELLA TYPHIMURIUM, Strain/Indicator: TA98, Metabolic Activation: RAT, LIVER, S-9, 3-METHYLCHOLANTHRENE, Method: STANDARD PLATE).
On to `OCCCCl`, for which the mutagenic call was “inactive; negative” (Test System: AMES SALMONELLA TYPHIMURIUM, Strain/Indicator: TA97, Metabolic Activation: HAMSTER, LIVER, S-9, AROCLOR 1254 (10%), Method: PREINCUBATION); “inactive; negative” (Test System: AMES SALMONELLA TYPHIMURIUM, Strain/Indicator: TA97, Metabolic Activation: NONE, Method: PREINCUBATION); “inactive; negative” (Test System: AMES SALMONELLA TYPHIMURIUM, Strain/Indicator: TA97, Metabolic Activation: RAT, LIVER, S-9, AROCLOR 1254 (10%), Method: PREINCUBATION); “inactive; negative” under setting [1]; “inactive; negative” under setting [2]; “inactive; negative” (Test System: AMES SALMONELLA TYPHIMURIUM, Strain/Indicator: TA98, Metabolic Activation: RAT, LIVER, S-9, AROCLOR 1254 (10%), Method: PREINCUBATION). For the same compound, the mutagenic call is “inactive; negative” (Test System: AMES SALMONELLA TYPHIMURIUM, Strain/Indicator: TA100, Metabolic Activation: HAMSTER, LIVER, S-9, AROCLOR 1254 (10%), Method: PREINCUBATION); “inactive; negative” under setting [3]; “inactive; negative” (Test System: AMES SALMONELLA TYPHIMURIUM, Strain/Indicator: TA100, Metabolic Activation: RAT, LIVER, S-9, AROCLOR 1254 (10%), Method: PREINCUBATION); “active; positive” (Test System: AMES SALMONELLA TYPHIMURIUM, Strain/Indicator: TA1535, Metabolic Activation: HAMSTER, LIVER, S-9, AROCLOR 1254 (10%), Method: PREINCUBATION); “inactive; negative” (Test System: AMES SALMONELLA TYPHIMURIUM, Strain/Indicator: TA1535, Metabolic Activation: NONE, Method: PREINCUBATION); “active; positive” (Test System: AMES SALMONELLA TYPHIMURIUM, Strain/Indicator: TA1535, Metabolic Activation: RAT, LIVER, S-9, AROCLOR 1254 (10%), Method: PREINCUBATION).
Turning to `CC(C)Sc1cc(Cc2ccc(N)c(SC(C)C)c2)ccc1N`, the mutagenic call by setting is: under setting [2], “inactive; negative”; (Test System: AMES SALMONELLA TYPHIMURIUM, Strain/Indicator: TA98, Metabolic Activation: RAT, LIVER, S-9, PCB, Method: PREINCUBATION) “active; positive”; under setting [3], “inactive; negative”; (Test System: AMES SALMONELLA TYPHIMURIUM, Strain/Indicator: TA100, Metabolic Activation: RAT, LIVER, S-9, PCB, Method: PREINCUBATION) “active; positive”.
